In patent publication US11530210B2, “Substituted heteroaromatic pyrazolo-pyridines and their use as GLUN2B receptor modulators” (JANSSEN PHARMACEUTICA NV, priority 2019, dated 2022):
Counter-ions that a name gives are not always drawn.

These compounds were tested against T1, human GluN1/GluN2B NMDA receptors (Homo sapiens, UniProt Q13224) (assay: Calcium flux (FLIPR) assay on cloned human NR1/GluN2B ion channels expressed in mammalian cells (standard and HTS variants)). Settings: cells expressing human GluN1/GluN2B, glutamate and glycine co-agonists.
T1 construct: expressed in transfected cells
T1 sequence (Q13224 27-1484, other chains not shown): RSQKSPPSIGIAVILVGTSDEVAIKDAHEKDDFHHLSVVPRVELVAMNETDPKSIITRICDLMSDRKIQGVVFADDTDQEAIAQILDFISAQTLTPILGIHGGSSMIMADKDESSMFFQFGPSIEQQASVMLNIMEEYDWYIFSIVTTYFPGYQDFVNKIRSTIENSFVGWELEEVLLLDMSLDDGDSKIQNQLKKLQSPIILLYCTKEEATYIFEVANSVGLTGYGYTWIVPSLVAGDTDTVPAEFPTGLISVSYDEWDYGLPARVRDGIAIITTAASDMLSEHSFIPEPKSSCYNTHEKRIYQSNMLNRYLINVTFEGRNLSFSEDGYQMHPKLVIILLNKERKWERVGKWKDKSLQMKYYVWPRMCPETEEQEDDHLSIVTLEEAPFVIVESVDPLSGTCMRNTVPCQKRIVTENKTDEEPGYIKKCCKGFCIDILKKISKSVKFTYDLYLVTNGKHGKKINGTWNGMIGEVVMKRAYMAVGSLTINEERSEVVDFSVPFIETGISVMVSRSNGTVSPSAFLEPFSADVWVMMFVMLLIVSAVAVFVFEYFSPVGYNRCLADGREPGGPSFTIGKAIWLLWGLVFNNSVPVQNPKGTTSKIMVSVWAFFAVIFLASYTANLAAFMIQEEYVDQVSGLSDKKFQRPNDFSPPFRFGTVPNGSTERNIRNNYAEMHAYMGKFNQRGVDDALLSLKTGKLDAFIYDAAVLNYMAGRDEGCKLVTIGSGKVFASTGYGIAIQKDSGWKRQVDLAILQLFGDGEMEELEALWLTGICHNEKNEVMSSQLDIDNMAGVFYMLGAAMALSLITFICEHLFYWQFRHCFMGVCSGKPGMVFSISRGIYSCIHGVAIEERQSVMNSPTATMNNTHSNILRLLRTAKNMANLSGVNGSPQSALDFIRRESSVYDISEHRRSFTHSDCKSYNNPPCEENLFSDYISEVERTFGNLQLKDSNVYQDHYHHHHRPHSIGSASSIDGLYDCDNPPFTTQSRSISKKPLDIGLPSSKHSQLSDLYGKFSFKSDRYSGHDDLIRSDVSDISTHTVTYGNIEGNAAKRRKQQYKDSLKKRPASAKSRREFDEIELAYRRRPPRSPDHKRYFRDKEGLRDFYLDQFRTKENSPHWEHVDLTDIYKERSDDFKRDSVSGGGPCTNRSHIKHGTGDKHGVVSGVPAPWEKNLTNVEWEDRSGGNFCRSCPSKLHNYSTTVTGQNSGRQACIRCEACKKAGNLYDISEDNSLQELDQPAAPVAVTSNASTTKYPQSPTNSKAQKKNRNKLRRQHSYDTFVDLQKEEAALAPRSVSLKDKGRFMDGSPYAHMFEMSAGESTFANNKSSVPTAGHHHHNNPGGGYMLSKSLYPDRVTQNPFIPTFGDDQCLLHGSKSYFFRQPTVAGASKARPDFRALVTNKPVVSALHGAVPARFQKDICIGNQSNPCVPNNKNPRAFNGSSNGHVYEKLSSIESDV
Format: cell-based
Method: Effects of Test Articles on Cloned Human NR1/GuN2B Ion Channels Expressed in Mammalian Cells
NMDA receptors are ion channels that are highly permeable to Ca^2+ ions, rendering it possible to monitor NMDA receptor function using cell-based calcium flux assay. In this assay, co-agonists glutamate and glycine are added to cells heterologously expressing human GluN1/GluN2B NMDA receptors to initiate cellular Ca^2+ influx. The time course of the changes in intracellular calcium is measured using a fluorescent dye and a FLIPR (Fluorometric Imaging Plate Reader) device.
Twenty-four hours before measurements, the expression of the NMDA receptors in the stable cell line is induced with Tet-On inducible system in the presence of a non-selective NMDA receptor blocker. On the day of the experiment, cell culture media is carefully washed, and the cells are loaded with Calcium 5 Dye Kit (Molecular Devices) in dye loading buffer containing 137 mM NaCl, 4 mM KCl, 2 mM CaCl2, 0.5 mM MgCl2 (standard assay) or 1.5 mM MgCl2 (HTS assay), 10 mM HEPES and 5 mM D-glucose; pH 7.4. After 1 h incubation at the room temperature, the dye is washed away with the assay buffer (137 mM NaCl (standard assay) or 150 mM (HTS assay), 4 mM KCl (standard assay) or 3 mM (HTS assay), 2 mM CaCl2), 0.01 mM EDTA, 10 mM HEPES and 5 mM D-glucose; pH 7.4) In the FLIPR TETRA reader, various concentrations of the test compounds are added to the cells for 5 min while fluorescence is monitored to detect potential agonist activity. Next, co-agonists, glutamate and glycine are added for another 5 minutes. The concentration of glutamate corresponding to ˜EC40 (standard assay) or EC40 (HTS assay) is used to maximize the assay's signal window and ability to detect NMDA receptor antagonists and negative allosteric modulators. A saturating concentration (10 μM) of glycine is also present in the assay. A non-selective NMDA receptor antagonist, (+)MK-801 is used as a positive control for antagonist activity. The fluorescent signal in the presence of test compounds is quantified and normalized to the signal defined by the appropriate control wells.

Q: How did the IC50 turn out when `Fc1ccc(-c2cnc3cnn(Cc4ccccn4)c3c2)cc1C(F)F` [Example 197, 6-[3-(Difluoromethyl)-4-fluoro-phenyl]-1-(2-pyridylmethyl)pyrazolo[4,3-b]pyridine] was run?
A: 130 nM

Q: `FC(F)Oc1cc(-c2cnc3cnn(Cc4cn[nH]c4)c3c2)ccc1Cl` [Example 41, 6-[4-Chloro-3-(difluoromethoxy)phenyl]-1-(1H-pyrazol-4-ylmethyl)pyrazolo[4,3-b]pyridine] was tested. Which IC50 did it give?
A: 423 nM

Q: With `Fc1ccc(-c2cnc3cnn(Cc4nncs4)c3c2)cc1C(F)F` [Example 121, 2-[[6-[3-(Difluoromethyl)-4-fluoro-phenyl]pyrazolo[4,3-b]pyridin-1-yl]methyl]-1,3,4-thiadiazole] as the compound, how does the IC50 read?
A: 25 nM

Q: How did the IC50 turn out when `Cc1ccc(-c2cnc3cnn(Cc4cccnc4)c3c2)s1` [Example 139, 6-(5-Methyl-2-thienyl)-1-(3-pyridylmethyl)pyrazolo[4,3-b]pyridine] was run?
A: 89 nM

Q: `Fc1ccc(-c2cnc3cnn(Cc4cncc(OC(F)F)c4)c3c2)cc1` [Example 151, 1-[[5-(Difluoromethoxy)-3-pyridyl]methyl]-6-(4-fluorophenyl)pyrazolo[4,3-b]pyridine] was tested. Which IC50 did it give?
A: 1150 nM

Q: How did the IC50 turn out when `COc1cncc(Cn2ncc3ncc(-c4ccc(F)c(F)c4)cc32)c1` [Example 193, 6-(3,4-Difluorophenyl)-1-[(5-methoxy-3-pyridyl)methyl]pyrazolo[4,3-b]pyridine] was run?
A: 277 nM

Q: `Fc1ccc(-c2cnc3cnn(Cc4ccccn4)c3c2)cc1OC(F)F` [Example 222, 6-[3-(Difluoromethoxy)-4-fluoro-phenyl]-1-(2-pyridylmethyl)pyrazolo[4,3-b]pyridine] was tested. Which IC50 did it give?
A: 502 nM

Q: For `Cc1ncc(Cn2ncc3ncc(-c4ccc(F)c(F)c4)cc32)cn1` [Example 285, 6-(3,4-Difluorophenyl)-1-[(2-methylpyrimidin-5-yl)methyl]pyrazolo[4,3-b]pyridine], which IC50 is on record?
A: > 10000 nM

Q: `Cn1cnc(Cn2ncc3ncc(-c4cccc(C(F)(F)F)c4)cc32)n1` [Example 71, 1-[(1-Methyl-1,2,4-triazol-3-yl)methyl]-6-[3-(trifluoromethyl)phenyl]pyrazolo[4,3-b]pyridine] was tested. Which IC50 did it give?
A: 891 nM

Q: How did the IC50 turn out when `FC(F)Oc1cc(-c2cnc3cnn(Cc4cccnc4)c3c2)ccc1Cl` [Example 238, 6-[4-Chloro-3-(difluoromethoxy)phenyl]-1-(3-pyridylmethyl)pyrazolo[4,3-b]pyridine] was run?
A: 117 nM

Q: How did the IC50 turn out when `COc1cncc(Cn2ncc3ncc(-c4cc(F)c(F)c(F)c4)cc32)c1` [Example 252, 1-[(5-Methoxy-3-pyridyl)methyl]-6-(3,4,5-trifluorophenyl)pyrazolo[4,3-b]pyridine] was run?
A: 382 nM

Q: With `COc1cncc(Cn2ncc3ncc(-c4ccc(Cl)c(OC(F)F)c4)cc32)c1` [Example 242, 6-[4-Chloro-3-(difluoromethoxy)phenyl]-1-[(5-methoxy-3-pyridyl)methyl]pyrazolo[4,3-b]pyridine] as the compound, how does the IC50 read?
A: 500 nM

Q: `N#Cc1cc(F)cc(Cn2ncc3ncc(-c4ccc(F)c(OC(F)F)c4)cc32)c1` [Example 31, 3-[[6-[3-(Difluoromethoxy)-4-fluoro-phenyl]pyrazolo[4,3-b]pyridin-1-yl]methyl]-5-fluoro-benzonitrile] was tested. Which IC50 did it give?
A: 389 nM

Q: How did the IC50 turn out when `Cc1cc(Cn2ncc3ncc(-c4ccc(F)cc4)cc32)on1` [Example 42, 5-[[6-(4-Fluorophenyl)pyrazolo[4,3-b]pyridin-1-yl]methyl]-3-methyl-isoxazole] was run?
A: 475 nM

Q: Which IC50 does the source give for `Cc1ccncc1Cn1ncc2ncc(-c3cccc(C(F)(F)F)c3)cc21` [Example 168, 1-[(4-Methyl-3-pyridyl)methyl]-6-[3-(trifluoromethyl)phenyl]pyrazolo[4,3-b]pyridine trifluoroacetate salt] here?
A: 161 nM

Q: How did the IC50 turn out when `COc1ccc(Cn2ncc3ncc(-c4ccc(F)c(C(F)F)c4)cc32)cn1` [Example 204, 6-[3-(Difluoromethyl)-4-fluoro-phenyl]-1-[(6-methoxy-3-pyridyl)methyl]pyrazolo[4,3-b]pyridine] was run?
A: 1620 nM

Q: For `Fc1ccc(-c2cnc3cnn(Cc4ccccn4)c3c2)cc1` [Example 149, 6-(4-Fluorophenyl)-1-(2-pyridylmethyl)pyrazolo[4,3-b]pyridine], which IC50 is on record?
A: 3460 nM
